Reference: patent publication US7070940B2, “Method for determining the ability of a compound to modify the interaction between parkin and the p38 protein” (Aventis Pharma S.A., priority 2002, dated 2006)

Key:
interaction Parkin-p38 = assay: Reverse two-hybrid screening assay in yeast (growth on 5-fluoroorotic acid); format: cell-based, Saccharomyces cerevisiae; conditions: internal control; agar medium with 0.35 g/l 5FOA, 30° C., 48 h and/or 72 h
Text: The Saccharomyces cerevisiae strain used for the screening can be the L40 strain used to clone the p38 protein. However, this strain must contain the URA3 reporter gene in place of the HIS3 reporter gene under the control of a promoter containing a sequence to which the LexA protein attaches to induce transcription. This strain may also contain a disruption in the erg6 gene and/or genes such as pdr5 or pdr11, to increase cell permeability to the compounds tested during the screening (WO96/10082).
This strain is simultaneously transformed with the two plasmids encoding the p38 protein or parkin used in the previous two-hybrid test or else encoding homologous or truncated forms of these two proteins. The interaction between these proteins confers a Ura+phenotype on the doubly-transformed strain, by reconstituting a transcription factor capable of inducing transcription of the URA3 reporter gene. This Ura+ phenotype also makes it possible to use the sensitivity of the strain to 5-fluoorotic acid (5FOA) for reverse two-hybrid “positive” screening. […]
48 h and/or 72 h and they may be read by visual examination. […] The compounds which have made it possible to obtain such a response of strain growth restoration are identified as being positive and recorded in a database.

[1] = tested on: COS7 cells overexpressing p38; assay: p38 perinuclear inclusions (aggresomes) by immunocytochemistry in COS7 cells; format: cell-based; conditions: 15 μg/ml overnight
Method: The cells (COS7, 2.5′ 104 and SH-SY5Y cells, 8′ 104) were transfected with the plasmids indicated (pcDNA3-myc-p38, 0.5 ·g; or pcDNA3-myc-p38 and pcDNA3-HA-Parkin, 0.25 ·g of each), and treated or not treated with: epoxomicin (Affiniti, 1 μM), nocodazole (Sigma, 15 μg/ml), cytochalasin D (Sigma, 200 nM) overnight. Forty-eight hours after transfection, the cells were fixed and subjected to standard immunocytochemistry procedures. The polyclonal primary antibodies used were: anti-p38 (M. Mirande, 1:20 000), anti-Parkin (Asp5, 1:400), anti-proteasome 20S (Affiniti, 1:2500), anti-Hsp70 (Stressgen, 1:2500), anti-ubiquitin (Dako, 1:100) and anti-actin (Sigma, 1:100). The monoclonal primary antibodies were: anti ·a-tubulin (clone DM 1A, Sigma, 1:1000), antivimentin (DAKO, clone V9, 1:100) and anti-myc (clone 9E10, Santa Cruz, 1:400). The secondary antibodies were: anti-mouse IgGs conjugated to the fluorochrome Alexa Fluor 488 (Interchim, 1:200) and anti-rabbit IgGs conjugated to the fluorochrome CY3 (Jackson ImmunoResearch, 1:500). The cells were analysed by confocal microscopy.
We analysed the nature and the composition of the p38 protein perinuclear inclusions formed when p38 is overexpressed in cells of the COS7 line. In particular, we wondered whether these inclusions could be of the aggresome type (Kopito et al., 2000). […]

For `O=c1cnn([C@@H]2O[C@H](CO)[C@@H](O)[C@H]2O)c(=O)[nH]1` [6-azauridine], the “yeast strain growth in the presence of 5FOA” value (interaction Parkin-p38) was “restores strain growth”.

With `COC(=O)Nc1nc2ccc(C(=O)c3cccs3)cc2[nH]1` [nocodazole] the “effect on p38 perinuclear aggregates” value [1] was “dispersion of the perinuclear aggregates”.
